pIC50: −log10 of the molar value. Where a SMILES comes first, the peptide text is derived from it. Bridges are numbered along the chain shown (N, C = ends). [ ]: non-standard residue; d: D form. Phe(4-CF3) = N[C@@H](Cc1ccc(C(F)(F)F)cc1)C(=O)O; Phe(3-CN) = N#Cc1cccc(C[C@H](N)C(=O)O)c1; Phe(3-OMe) = COc1cccc(C[C@H](N)C(=O)O)c1; Phe(2-CN) = N#Cc1ccccc1C[C@H](N)C(=O)O; 2Nal = N[C@@H](Cc1ccc2ccccc2c1)C(=O)O; Phe(2-F) = N[C@@H](Cc1ccccc1F)C(=O)O; hArg = N=C(N)NCCCC[C@H](N)C(=O)O; 2Pal = N[C@@H](Cc1ccccn1)C(=O)O; 3Pal = N[C@@H](Cc1cccnc1)C(=O)O; Agb = N=C(N)NCC[C@H](N)C(=O)O; Orn = NCCC[C@H](N)C(=O)O

One may read the pIC50 as the negative decadic logarithm of the IC50, by convention in mol/L.

The target in one assay is T1, Coagulation factor XII (Homo sapiens, UniProt P00748).
T1 sequence (P00748 whole entry): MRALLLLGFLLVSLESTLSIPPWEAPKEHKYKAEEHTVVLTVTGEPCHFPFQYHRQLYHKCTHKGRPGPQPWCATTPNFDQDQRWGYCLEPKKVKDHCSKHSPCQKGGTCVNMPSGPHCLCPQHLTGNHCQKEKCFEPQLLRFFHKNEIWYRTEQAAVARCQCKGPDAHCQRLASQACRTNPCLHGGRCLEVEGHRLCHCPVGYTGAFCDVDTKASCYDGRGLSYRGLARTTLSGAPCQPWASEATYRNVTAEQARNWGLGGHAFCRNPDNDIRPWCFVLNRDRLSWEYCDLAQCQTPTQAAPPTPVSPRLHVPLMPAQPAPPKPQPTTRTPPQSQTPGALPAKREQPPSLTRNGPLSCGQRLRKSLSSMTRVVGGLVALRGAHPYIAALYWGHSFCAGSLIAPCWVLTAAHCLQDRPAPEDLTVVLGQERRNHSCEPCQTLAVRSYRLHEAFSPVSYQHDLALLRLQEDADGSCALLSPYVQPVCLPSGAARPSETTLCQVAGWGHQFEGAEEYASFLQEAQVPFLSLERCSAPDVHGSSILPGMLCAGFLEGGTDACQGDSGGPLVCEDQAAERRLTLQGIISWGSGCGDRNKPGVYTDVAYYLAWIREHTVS
The experiment in a line: Inhibition of human factor 12a using H-D-Pro-Phe-Arg-p-nitroanilide as chromogenic substrate assessed as liberation of p-nitroaniline measured every 5 mins for 60 min by multimode plate reader analysis.
With `CC[C@H](C)[C@@H]1NC(=O)[C@H](CC(C)C)NC(=O)[C@H](Cc2ccc(O)cc2)NC(=O)CSC[C@@H](C(=O)N[C@H](C(=O)N[C@@H](CO)C(=O)N[C@@H](CCCNC(=N)N)C(=O)N[C@@H](CCCNC(=N)N)C(=O)N[C@@H](C)C(=O)N[C@@H](Cc2ccccc2)C(=O)N[C@@H](Cc2ccccc2)C(=O)N[C@H](C(=O)N[C@@H](CC(=O)O)C(=O)N[C@@H](CCC(N)=O)C(=O)N[C@@H](CO)C(N)=O)[C@@H](C)O)C(C)C)NC1=O` ({CH2CO}-YLICVSRRAFFTDQS-NH2; thioether N-4), the pIC50 is less than 4.00. Same read-out and setting: as for `CC(C)C[C@@H]1NC(=O)[C@H](Cc2ccc(O)cc2)NC(=O)CSC[C@@H](C(N)=O)NC(=O)CNC(=O)CNC(=O)[C@H](CCCNC(=N)N)NC(=O)[C@H](CC(=O)O)NC(=O)[C@H](CCCCN)NC(=O)[C@@H]2CCCN2C(=O)[C@H](CCNC(=N)N)NC(=O)[C@H](Cc2ccccc2)NC(=O)[C@H](CCCNC(=N)N)NC1=O` ({CH2CO}-YLRF[Agb]PKDRGGC-NH2; thioether N-12), the figure is 5.48. On the same count and under the same terms, with `CC(C)C[C@@H]1NC(=O)[C@H](Cc2ccc(O)cc2)NC(=O)CSC[C@@H](C(N)=O)NC(=O)CNC(=O)CNC(=O)[C@H](CCCNC(=N)N)NC(=O)[C@H](CC(=O)O)NC(=O)[C@H](CCCCN)NC(=O)[C@@H]2CCCN2C(=O)[C@H](CCCNC(=N)N)NC(=O)[C@H](Cc2ccc(C(F)(F)F)cc2)NC(=O)[C@H](CCCNC(=N)N)NC1=O` ({CH2CO}-YLR[Phe(4-CF3)]RPKDRGGC-NH2; thioether N-12) the figure was 6.96; with `CC(C)C[C@@H]1NC(=O)[C@H](Cc2ccc(O)cc2)NC(=O)CSC[C@@H](C(N)=O)NC(=O)CNC(=O)CNC(=O)[C@H](CCCNC(=N)N)NC(=O)[C@H](CC(=O)O)NC(=O)[C@H](CCCCN)NC(=O)[C@@H]2CCCN2C(=O)[C@H](CCCNC(=N)N)NC(=O)[C@H](Cc2ccccc2)NC(=O)[C@H](C)NC1=O` ({CH2CO}-YLAFRPKDRGGC-NH2; thioether N-12), 3.96; with `CC(C)C[C@@H]1NC(=O)[C@H](C)NC(=O)[C@H](CC(C)C)NC(=O)[C@H](Cc2ccc(O)cc2)NC(=O)CSC[C@@H](C(N)=O)NC(=O)CNC(=O)CNC(=O)[C@H](CCC(N)=O)NC(=O)[C@H](CC(N)=O)NC(=O)[C@H]([C@@H](C)O)NC(=O)[C@@H]2CCCN2C(=O)[C@H](CCCCN)NC1=O` ({CH2CO}-YLALKPTNQGGC-NH2; thioether N-12), 3.07.

As to `COc1cccc(C[C@@H]2NC(=O)CSC[C@@H](C(N)=O)NC(=O)CNC(=O)CNC(=O)[C@H](CCCNC(=N)N)NC(=O)[C@H](CC(=O)O)NC(=O)[C@H](CCCCN)NC(=O)[C@@H]3CCCN3C(=O)[C@H](CCCNC(=N)N)NC(=O)[C@H](Cc3ccccc3)NC(=O)[C@H](CCCNC(=N)N)NC(=O)[C@H](CC(C)C)NC2=O)c1` ({CH2CO}-[Phe(3-OMe)]LRFRPKDRGGC-NH2; thioether N-12), the pIC50 is 6.19. The same measure, in the same setting: as for `C[C@@H]1NC(=O)[C@H](Cc2ccc(O)cc2)NC(=O)CSC[C@@H](C(N)=O)NC(=O)CNC(=O)CNC(=O)[C@H](CCCNC(=N)N)NC(=O)[C@H](CC(=O)O)NC(=O)[C@H](CCCCN)NC(=O)[C@@H]2CCCN2C(=O)[C@H](CCCNC(=N)N)NC(=O)[C@H](Cc2ccccc2)NC(=O)[C@H](CCCNC(=N)N)NC1=O` ({CH2CO}-YARFRPKDRGGC-NH2; thioether N-12), the figure is 3.54; as for `CC(C)C[C@@H]1NC(=O)[C@H](Cc2ccc(O)cc2)NC(=O)CSC[C@@H](C(N)=O)NC(=O)CNC(=O)CNC(=O)[C@H](CCCNC(=N)N)NC(=O)[C@H](CC(=O)O)NC(=O)[C@H](CCCCN)NC(=O)[C@@H]2CCCN2C(=O)[C@H](CCCNC(=N)N)NC(=O)[C@H](Cc2ccccc2)NC(=O)[C@H](CCCN)NC1=O` ({CH2CO}-YL[Orn]FRPKDRGGC-NH2; thioether N-12), 4.15; as for `CC(C)C[C@@H]1NC(=O)[C@H](Cc2ccc(O)cc2)NC(=O)CSC[C@@H](C(N)=O)NC(=O)CNC(=O)CNC(=O)[C@H](CCCNC(=N)N)NC(=O)[C@H](CC(=O)O)NC(=O)[C@H](CCCCN)NC(=O)[C@@H]2CCCN2C(=O)[C@H](CCCNC(=N)N)NC(=O)[C@H](Cc2cccc(C#N)c2)NC(=O)[C@H](CCCNC(=N)N)NC1=O` ({CH2CO}-YLR[Phe(3-CN)]RPKDRGGC-NH2; thioether N-12), 6.80. On the same count and under the same terms, with `CC(C)C[C@@H]1NC(=O)[C@H](Cc2ccc(O)cc2)NC(=O)CSC[C@@H](C(N)=O)NC(=O)CNC(=O)CNC(=O)[C@H](CCCNC(=N)N)NC(=O)[C@H](CC(=O)O)NC(=O)[C@H](CCCCN)NC(=O)[C@@H]2CCCN2C(=O)[C@H](CCCNC(=N)N)NC(=O)[C@H](Cc2cccnc2)NC(=O)[C@H](CCCNC(=N)N)NC1=O` ({CH2CO}-YLR[3Pal]RPKDRGGC-NH2; thioether N-12) the figure was 6.77. On the same count and under the same terms, as for `CC(C)C[C@@H]1NC(=O)[C@H](Cc2ccc(O)cc2)NC(=O)CSC[C@@H](C(N)=O)NC(=O)CNC(=O)CNC(=O)[C@H](CCCNC(=N)N)NC(=O)[C@H](CC(=O)O)NC(=O)[C@H](CCCCN)NC(=O)[C@@H]2CCCN2C(=O)[C@H](CCCNC(=N)N)NC(=O)[C@H](Cc2ccccn2)NC(=O)[C@H](CCCNC(=N)N)NC1=O` ({CH2CO}-YLR[2Pal]RPKDRGGC-NH2; thioether N-12), the figure is 7.02; as for `CC(C)C[C@@H]1NC(=O)[C@H](Cc2ccc(O)cc2)NC(=O)CSC[C@@H](C(N)=O)NC(=O)CNC(=O)CNC(=O)[C@H](CCCNC(=N)N)NC(=O)[C@H](CC(=O)O)NC(=O)[C@H](CCCCN)NC(=O)[C@@H]2CCCN2C(=O)[C@H](CCCNC(=N)N)NC(=O)[C@H](Cc2ccccc2)NC(=O)[C@H](CCNC(=N)N)NC1=O` ({CH2CO}-YL[Agb]FRPKDRGGC-NH2; thioether N-12), 6.23. With `CC(C)C[C@@H]1NC(=O)[C@H](Cc2ccccc2C#N)NC(=O)CSC[C@@H](C(N)=O)NC(=O)CNC(=O)CNC(=O)[C@H](CCCNC(=N)N)NC(=O)[C@H](CC(=O)O)NC(=O)[C@H](CCCCN)NC(=O)[C@@H]2CCCN2C(=O)[C@H](CCCNC(=N)N)NC(=O)[C@H](Cc2ccccc2)NC(=O)[C@H](CCCNC(=N)N)NC1=O` ({CH2CO}-[Phe(2-CN)]LRFRPKDRGGC-NH2; thioether N-12), the pIC50 was 4.85. Same read-out and setting: as for `CC(C)C[C@@H]1NC(=O)[C@H](Cc2ccc(O)cc2)NC(=O)CSC[C@@H](C(N)=O)NC(=O)CNC(=O)CNC(=O)[C@H](CCCNC(=N)N)NC(=O)[C@H](CC(=O)O)NC(=O)[C@H](CCCCN)NC(=O)[C@@H]2CCCN2C(=O)[C@H](CCCNC(=N)N)NC(=O)[C@H](Cc2ccccc2C#N)NC(=O)[C@H](CCCNC(=N)N)NC1=O` ({CH2CO}-YLR[Phe(2-CN)]RPKDRGGC-NH2; thioether N-12), the figure is 6.92; as for `CC(C)C[C@@H]1NC(=O)[C@H](Cc2ccc(O)cc2)NC(=O)CSC[C@@H](C(N)=O)NC(=O)CNC(=O)CNC(=O)[C@H](CCCNC(=N)N)NC(=O)[C@H](CC(=O)O)NC(=O)[C@H](CCCCN)NC(=O)[C@@H]2CCCN2C(=O)[C@H](CCCNC(=N)N)NC(=O)[C@H](Cc2ccccc2F)NC(=O)[C@H](CCCNC(=N)N)NC1=O` ({CH2CO}-YLR[Phe(2-F)]RPKDRGGC-NH2; thioether N-12), 7.28; as for `CC(C)C[C@@H]1NC(=O)[C@H](Cc2ccc(O)cc2)NC(=O)CSC[C@@H](C(N)=O)NC(=O)CNC(=O)CNC(=O)[C@H](CCCNC(=N)N)NC(=O)[C@H](CC(=O)O)NC(=O)[C@H](CCCCN)NC(=O)[C@@H]2CCCN2C(=O)[C@H](CCCNC(=N)N)NC(=O)[C@H](Cc2ccc3ccccc3c2)NC(=O)[C@H](CCCNC(=N)N)NC1=O` ({CH2CO}-YLR[2Nal]RPKDRGGC-NH2; thioether N-12), 7.30. For the molecule `CC(C)C[C@@H]1NC(=O)[C@H](Cc2ccc(O)cc2)NC(=O)CSC[C@@H](C(N)=O)NC(=O)CNC(=O)CNC(=O)[C@H](CCCNC(=N)N)NC(=O)[C@H](CC(=O)O)NC(=O)[C@H](C)NC(=O)[C@@H]2CCCN2C(=O)[C@H](CCCNC(=N)N)NC(=O)[C@H](Cc2ccccc2)NC(=O)[C@H](CCCNC(=N)N)NC1=O` ({CH2CO}-YLRFRPADRGGC-NH2; thioether N-12), the pIC50 was 6.40. Regarding `CC(C)C[C@@H]1NC(=O)[C@H](Cc2ccc(O)cc2)NC(=O)CSC[C@@H](C(N)=O)NC(=O)[C@H](C)NC(=O)CNC(=O)[C@H](CCCNC(=N)N)NC(=O)[C@H](CC(=O)O)NC(=O)[C@H](CCCCN)NC(=O)[C@@H]2CCCN2C(=O)[C@H](CCCNC(=N)N)NC(=O)[C@H](Cc2ccccc2)NC(=O)[C@H](CCCNC(=N)N)NC1=O` ({CH2CO}-YLRFRPKDRGAC-NH2; thioether N-12), the negative-log IC50 (pIC50) is 4.82. As to `CC(C)C[C@@H]1NC(=O)[C@H](Cc2ccc(O)cc2)NC(=O)CSC[C@@H](C(N)=O)NC(=O)CNC(=O)CNC(=O)[C@H](CCCNC(=N)N)NC(=O)[C@H](CC(=O)O)NC(=O)[C@H](CCCCN)NC(=O)[C@@H]2CCCN2C(=O)[C@H](CCCNC(=N)N)NC(=O)[C@H](Cc2ccccc2)NC(=O)[C@H](CCCCNC(=N)N)NC1=O` ({CH2CO}-YL[hArg]FRPKDRGGC-NH2; thioether N-12), the pIC50 is 7.14.

In a further assay the target is Coagulation factor X (Homo sapiens, UniProt P00742). The experiment in a line: Inhibition of human factor 10a using methoxycarbonyl-D-Nle-Gly-Arg-pNA as substrate measured after 60 mins by microplate reader analysis.
Sequence of Coagulation factor X (P00742 41-179 limits assumed): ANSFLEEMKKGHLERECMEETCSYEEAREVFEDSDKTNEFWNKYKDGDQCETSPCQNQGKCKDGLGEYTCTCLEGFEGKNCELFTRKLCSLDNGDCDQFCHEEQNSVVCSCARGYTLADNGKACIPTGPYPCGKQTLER
Sequence of Coagulation factor X (P00742 235-488 limits assumed): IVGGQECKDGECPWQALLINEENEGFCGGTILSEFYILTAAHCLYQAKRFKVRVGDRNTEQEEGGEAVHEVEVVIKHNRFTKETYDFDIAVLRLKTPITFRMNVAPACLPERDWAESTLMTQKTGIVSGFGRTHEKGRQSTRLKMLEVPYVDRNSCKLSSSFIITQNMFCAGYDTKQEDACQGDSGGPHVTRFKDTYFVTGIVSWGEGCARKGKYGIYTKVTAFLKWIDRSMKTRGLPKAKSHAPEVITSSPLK
Consider `CC[C@H](C)[C@@H]1NC(=O)[C@H](CC(C)C)NC(=O)[C@H](Cc2ccc(O)cc2)NC(=O)CSC[C@@H](C(=O)N[C@H](C(=O)N[C@@H](CO)C(=O)N[C@@H](CCCNC(=N)N)C(=O)N[C@@H](CCCNC(=N)N)C(=O)N[C@@H](C)C(=O)N[C@@H](Cc2ccccc2)C(=O)N[C@@H](Cc2ccccc2)C(=O)N[C@H](C(=O)N[C@@H](CC(=O)O)C(=O)N[C@@H](CCC(N)=O)C(=O)N[C@@H](CO)C(N)=O)[C@@H](C)O)C(C)C)NC1=O` ({CH2CO}-YLICVSRRAFFTDQS-NH2; thioether N-4), for which the pIC50 was less than 4.00.

The values are drawn from ChEMBL document CHEMBL5042477, “Potent Cyclic Peptide Inhibitors of FXIIa Discovered by mRNA Display with Genetic Code Reprogramming” (J Med Chem, 2021).
